Literature values as cited in patent US20240024490A1, “BIFUNCTIONAL MOLECULES FOR SELECTIVE MODIFICATION OF TARGET SUBSTRATES” (The Broad Institute, Inc., priority 2021, published 2024).
Read-outs that look alike come from different tables or passages of the source.

How the values were obtained:
C26 = settings: cited from earlier work
[1] = cited from earlier work
BT-474 (breast) = settings: cited from earlier work
MCF-7 (breast) = settings: cited from earlier work
KU-19-19 (bladder) = settings: cited from earlier work
[2] = tested on: LPS-stimulated THP-1 cells; settings: read-out: IC50, block of TNFα release; cited from earlier work
[3] = tested on: screening panel of kinases; settings: 1000 nM EAI045; cited from earlier work
[4] = tested on: EGFR(L858R/T790M/C797S) tumors; settings: in vivo; cited from earlier work
RS4 = settings: cited from earlier work
LAX7R = settings: cited from earlier work
Z138 = settings: read-out: IC50, proliferation; cited from earlier work
SupB15 = settings: cited from earlier work
SEM cells = settings: cited from earlier work
LAX2 = settings: cited from earlier work
REH = settings: cited from earlier work
MS751 cervical carcinoma = settings: read-out: IC50, proliferation; cited from earlier work
KOPN-8 = settings: cited from earlier work
697 cells = settings: cited from earlier work
[5] = tested on: Molt-4 (T cell acute lymphoblastic leukemia) xenografts; settings: SCID mice; cited from earlier work
OP-1 = settings: cited from earlier work
ICN13 = settings: cited from earlier work
Nalm6 = settings: cited from earlier work
[6] = tested on: CD138-purified multiple myeloma (MM) cells from patients; settings: cited from earlier work
RIPK-1 = RIPK-1 (Homo sapiens, UniProt Q13546); settings: cited from earlier work
RIPK-1, sequence (Q13546 whole entry, species assumed): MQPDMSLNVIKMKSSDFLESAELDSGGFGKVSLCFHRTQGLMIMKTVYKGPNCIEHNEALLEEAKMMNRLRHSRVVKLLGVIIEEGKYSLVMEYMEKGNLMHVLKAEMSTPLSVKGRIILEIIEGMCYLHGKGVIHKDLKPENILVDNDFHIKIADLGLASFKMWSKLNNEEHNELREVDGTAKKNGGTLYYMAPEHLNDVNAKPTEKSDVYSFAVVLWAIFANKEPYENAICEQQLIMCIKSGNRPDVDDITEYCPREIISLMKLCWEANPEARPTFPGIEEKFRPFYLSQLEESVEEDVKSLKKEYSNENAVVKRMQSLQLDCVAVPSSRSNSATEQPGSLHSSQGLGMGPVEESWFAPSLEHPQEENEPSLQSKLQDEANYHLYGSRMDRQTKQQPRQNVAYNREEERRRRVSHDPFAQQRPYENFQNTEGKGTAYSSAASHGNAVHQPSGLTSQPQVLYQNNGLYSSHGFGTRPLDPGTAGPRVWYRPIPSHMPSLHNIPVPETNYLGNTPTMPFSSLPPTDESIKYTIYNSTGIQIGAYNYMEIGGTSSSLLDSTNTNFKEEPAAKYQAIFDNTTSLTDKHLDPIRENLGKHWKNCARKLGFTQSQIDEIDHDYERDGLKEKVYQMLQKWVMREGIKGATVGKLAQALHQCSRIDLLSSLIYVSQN

FGFR2 = settings: read-out: IC50, FGF1-induced ERK phosphorylation via FGFR2; cited from earlier work
p-ERK1/2 = settings: cited from earlier work
[7] = in vivo; cited from earlier work
PTK2 = settings: prostate cancer cells; read-out: IC50, autophosphorylation of PTK2; cited from earlier work
[8] = cited from earlier work; remark: listed apart in the source
Crk-L = settings: cited from earlier work
NCI-H441 cells [9] = settings: read-out: Invasion IC50; cited from earlier work
c-Met = target: T1, c-Met (Homo sapiens, UniProt P08581); settings: cited from earlier work
T1 construct: host or cells: NCI-H441 (as the sentence says)
T1 sequence (P08581 25-1390): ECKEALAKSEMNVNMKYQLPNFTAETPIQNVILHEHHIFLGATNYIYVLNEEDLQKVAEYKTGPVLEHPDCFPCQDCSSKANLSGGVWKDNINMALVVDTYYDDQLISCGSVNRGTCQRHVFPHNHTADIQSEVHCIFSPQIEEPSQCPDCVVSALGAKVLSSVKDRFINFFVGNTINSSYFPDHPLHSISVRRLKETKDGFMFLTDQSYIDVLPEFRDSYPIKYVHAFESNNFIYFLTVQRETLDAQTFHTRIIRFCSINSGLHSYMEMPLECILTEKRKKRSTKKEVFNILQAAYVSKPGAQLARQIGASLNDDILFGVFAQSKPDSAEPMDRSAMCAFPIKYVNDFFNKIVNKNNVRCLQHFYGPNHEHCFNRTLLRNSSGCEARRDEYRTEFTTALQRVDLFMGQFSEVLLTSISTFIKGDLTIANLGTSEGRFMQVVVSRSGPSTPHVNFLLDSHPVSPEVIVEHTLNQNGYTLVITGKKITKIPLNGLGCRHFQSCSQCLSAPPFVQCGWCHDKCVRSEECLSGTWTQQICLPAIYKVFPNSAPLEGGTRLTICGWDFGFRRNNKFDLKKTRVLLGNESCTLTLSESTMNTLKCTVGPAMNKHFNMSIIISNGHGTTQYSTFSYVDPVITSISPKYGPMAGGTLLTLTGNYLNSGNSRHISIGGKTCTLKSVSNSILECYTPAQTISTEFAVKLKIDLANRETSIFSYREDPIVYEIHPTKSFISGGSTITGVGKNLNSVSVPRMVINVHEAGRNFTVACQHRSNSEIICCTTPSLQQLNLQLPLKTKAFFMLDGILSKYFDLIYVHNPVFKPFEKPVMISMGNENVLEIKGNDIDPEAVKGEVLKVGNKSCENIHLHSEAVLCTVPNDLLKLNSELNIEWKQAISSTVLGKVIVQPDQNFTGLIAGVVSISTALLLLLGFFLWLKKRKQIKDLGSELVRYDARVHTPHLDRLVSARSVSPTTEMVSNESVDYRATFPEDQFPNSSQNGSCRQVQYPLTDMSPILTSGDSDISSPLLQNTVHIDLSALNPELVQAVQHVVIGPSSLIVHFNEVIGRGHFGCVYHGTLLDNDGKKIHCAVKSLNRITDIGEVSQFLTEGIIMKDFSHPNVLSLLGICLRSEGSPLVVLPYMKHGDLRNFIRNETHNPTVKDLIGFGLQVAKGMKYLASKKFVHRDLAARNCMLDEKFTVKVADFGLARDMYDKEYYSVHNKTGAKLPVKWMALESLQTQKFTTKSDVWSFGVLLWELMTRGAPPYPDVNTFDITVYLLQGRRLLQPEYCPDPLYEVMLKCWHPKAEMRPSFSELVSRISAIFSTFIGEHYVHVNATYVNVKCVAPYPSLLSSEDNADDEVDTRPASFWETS

NCI-H441 cells [10] = settings: read-out: phosphor-MET IC50; cited from earlier work
NCI-H441 cells [11] = settings: read-out: viability IC50; cited from earlier work

**Q.** Which results are given for `O=C(NOCC1CC1)c1ccc(F)c(F)c1Nc1ccc(I)cc1Cl` [24 (CI-1040), CI-1040]?
**A.** IC50 (C26): 35 nM; Sol (pH 6.5) [1]: <1 μg/mL

**Q.** With `C=CC(=O)Nc1ccc2[nH]c(=O)n(C3CCN(Cc4ccc(-c5nc6cc[nH]c(=O)c6cc5-c5ccccc5)cc4)CC3)c2c1` [Borussertib] as the molecule, how does the EC50 (BT-474 (breast)) read?
**A.** 373 ± 54 nM

**Q.** What about the EC50 (MCF-7 (breast)) of the same molecule?
**A.** 277 ± 90 nM

**Q.** What about the EC50 (KU-19-19 (bladder)) of the same molecule?
**A.** 7770 ± 641 nM

**Q.** Which IC50 [2] does the source give for `Cc1ccc(-n2nc(C(C)(C)C)cc2NC(=O)Nc2ccc(OCCN3CCOCC3)c3ccccc23)cc1` [Doramapimod] here?
**A.** 18 nM

**Q.** With `O=C(Nc1nccs1)C(c1cc(F)ccc1O)N1Cc2ccccc2C1=O` (stereo not shown) [EAI045] as the molecule, how does the “inhibition of any other kinases in screening panels” value [3] read?
**A.** ≤ 20%

**Q.** And the “efficacy in xenograft models” value [4]?
**A.** effective

**Q.** For `Nc1ccc(/C=C/C(=O)NCc2cc3cc(-c4ccc(C(=O)N5CCC(F)(F)CC5)cc4)cc(-c4ccc(F)cc4)c3o2)cn1` [KPT-9274], which IC50 (RS4) is on record?
**A.** 5.6 nM

**Q.** What about the IC50 (LAX7R) of the same molecule?
**A.** 32.7 nM

**Q.** And the IC50 (Z138)?
**A.** < 100 nM

**Q.** And the IC50 (SupB15)?
**A.** 22.6 nM

**Q.** And the IC50 (SEM cells)?
**A.** > 10000 nM

**Q.** What about the IC50 (LAX2) of the same molecule?
**A.** 19.4 nM

**Q.** What about the IC50 (REH) of the same molecule?
**A.** 14.3 nM

**Q.** And the IC50 (MS751 cervical carcinoma)?
**A.** < 100 nM

**Q.** What about the IC50 (KOPN-8) of the same molecule?
**A.** 2.4 nM

**Q.** What about the IC50 (697 cells) of the same molecule?
**A.** 16.7 nM

**Q.** And the effect on xenografts [5]?
**A.** induces shrinkage

**Q.** What about the IC50 (OP-1) of the same molecule?
**A.** 18 nM

**Q.** What about the IC50 (ICN13) of the same molecule?
**A.** 25.9 nM

**Q.** What about the IC50 (Nalm6) of the same molecule?
**A.** 19 nM

**Q.** For `O=C(NC[C@H](O)CO)c1ccncc1Nc1ccc(I)cc1F` [Pimasertib], which IC50 [6] is on record?
**A.** 2 to 200 nM

**Q.** For `CCC(C)(C)C(=O)N(O)Cc1ccccc1` [RIPA-56], which pIC50 (RIPK-1) is on record?
**A.** 7.9

**Q.** Which IC50 (FGFR2) does the source give for `COc1c(C)c(C(=O)c2ccc(N)c(C(=O)O)c2)n2ccccc12` [SSR128129E] here?
**A.** < 100 nM

**Q.** Which “sustained suppression of p-ERK1/2” value (p-ERK1/2) does the source give for `CC(=O)Nc1cccc(-n2c(=O)n(C3CC3)c(=O)c3c(Nc4ccc(I)cc4F)n(C)c(=O)c(C)c32)c1` [Trametinib, Trametnib] here?
**A.** more than 24 hours

**Q.** And the “Absorption/distribution of an oral dose” value [7]?
**A.** 72%

**Q.** Which IC50 (PTK2) does the source give for `CN1c2ccc(NCc3ccc(C(C)(C)C)cc3)cc2-c2c(cnn2C)S1(=O)=O` [compound 30] here?
**A.** 7100 nM

**Q.** What does the source list for `N#CCCC(=O)NC1=NN(c2ccc(Cl)c(Cl)c2)CC1` [compound 32]?
**A.** In Vitro Clearance [8]: <0.01 mL/min/mg protein; Fold Increase phCRKE Vs Total Crk-L (normalised) (Crk-L; 40 min): 19x; Fold Increase phCRKE Vs Total Crk-L (normalised) (Crk-L; 180 min): 35x

**Q.** Which IC50 (NCI-H441 cells [9]) does the source give for `O=C1NC(=O)[C@@H](c2cn3c4c(cccc24)CCC3)[C@@H]1c1c[nH]c2ccccc12` [tivantinib] here?
**A.** 80 nM

**Q.** And the pKi (c-Met)?
**A.** 6.4

**Q.** What about the “selectivity for c-Met over other kinases tested” value (c-Met) of the same molecule?
**A.** 10-100 time

**Q.** What about the IC50 (c-Met; read-out: Enzyme IC50) of the same molecule?
**A.** 50 nM

**Q.** And the IC50 (NCI-H441 cells [10])?
**A.** 100 nM

**Q.** And the IC50 (NCI-H441 cells [11])?
**A.** 100 nM
